Results reported in patent US20250270170A1, “2,3-DIMETHOXY-5-METHYL-1,4-BENZOQUINONE ALKYL ALCOHOL DERIVATIVE AND USE THEREOF” (BEIJING ANJIANXI BIO-MEDICAL TECHNOLOGY CO., LTD., priority 2021, published 2025).
Where “and” joins values, the source holds several entries; their conditions need not be identical. Equal entries are not always repeated. Entries after “also recorded” stand apart in the source; their conditions may differ.

Legend:
NCI-H460 cells = experiment: Flow cytometry for apoptosis detection (Annexin V-FITC/PI), NCI-H460; type: cell-based, human; settings: 72 h
Description: (1) Cells were inoculated in a 6-well plate. When the cell growth density was appropriate, four concentrations (0 μM, 10 μM, 30 μM, and 90 μM) of the compound of formula (I) were added, and placed in an incubator at 37° C. with 5% CO2 to continue culturing for 72 hours.
(2) After reaching the designated time point, the cell culture plate was taken out from the incubator, and placed in a biological safety cabinet. A 4 ml centrifuge tube was taken and marked. The supernatant in the 6-well plate was pipetted out and added to the corresponding 4 ml centrifuge tube. The cells were gently washed with PBS, and the PBS was added to the corresponding centrifuge tube. An appropriate amount of trypsin was added to each well to digest the cells. When the cells were digested to a moderate degree, the liquid in the centrifuge tube was added to the corresponding well. The cells were gently pipetted with a pipette to disperse the cells, and was pipetted back into the original centrifuge tube. The tube was immediately centrifuged at 1500 rpm for 5 minutes. Then, the supernatant was discarded and the precipitate was retained.
(3) 2 ml of PBS was added to the centrifuge tube, which was centrifuged again at 1000 rpm for 5 minutes. The supernatant was discarded. This step was repeated again.
(4) The cells were suspended with 1× Binding buffer, and the cell concentration was adjusted to approximately 1×10^6 cells/ml. 100 μl of cell suspension was added to the flow cytometry tube, and 5 μl of PI and 5 μl of Annexin V-FITC were added to each tube. The cells were gently vortexed, and incubated at room temperature in dark for 15 min.
(5) 400 μl of 1× Binding buffer was further added to each tube, and the detection was performed on the flow cytometer (the detection was in need to be completed within 1 hour).
We used AnnexinV-FITC and PI double staining method for apoptosis staining. FL1 channel was selected for FITC, and FL2 channel was selected for PI. Flow cytometry analysis was used to detect cell apoptosis. Q1, Q2, Q3, and Q4 represented dead cells, late apoptotic cells, early apoptotic cells, and normal cells, respectively (FIG. 7). After treating A549 and NCI-H460 cells with the compound of formula (I) at different concentrations (0 μM, 10 μM, 30 μM, and 90 μM) for 72 h, the flow cytometry results are as follows. Table 1 and Table 2 show the proportions of dead cells, late apoptotic cells, early apoptotic cells, and normal cells after treating the A549 and NCI-H460 cells with different concentrations of the compound of formula (I), respectively.

[1] = system: cisplatin-induced acute kidney damage in mice; experiment: Example 11: serum urea nitrogen (Bun) in cisplatin-induced acute kidney damage model; type: in vivo, C57BL/6J mice; settings: for serum urea nitrogen value vs model group: P>0.05; for Urea nitrogen (Bun) level after the assay, x (mean): group mean; for Urea nitrogen (Bun) level after the assay, x (mean) / Urea nitrogen (Bun) level after the assay: cisplatin model; for Urea nitrogen (Bun) level after the assay: individual animals No. 1-7
Description: (§1) 42 male C57BL/6J mice (age: 6 to 8 weeks, body weight 18-20 g, certificate number: 11400700238365) were purchased from Si Pei Fu (Beijing) Biotechnology Co., Ltd., and raised in an SPF-grade animal room of the Institute of Materia Medica, Chinese Academy of Medical Sciences, at a temperature of 20 to 25° C., a relative humidity of 40% to 70%, and a cycle of 12 hours of light and 12 hours of dark. The animals had free access to water and food. After 3 days of normal feeding, mice with good physical conditions after the veterinary examination were selected for this assay. Before grouping, a marker was used to mark on the base of the animals' tail. After grouping, each animal was marked with an ear cutout (7 mice in each group).
(§2) Assay animals: 42 7-week-old male C57 mice were used for animal testing after an adaptive feeding.
(§3) Group 1: blank control group;
(§4) The preparation of the R01 formulation administration test solution was the same as that in Example 5: an appropriate amount of the R01 formulation was weighed according to the three dosages set in the assay, respectively, and an appropriate volume of 0.5% CMC-Na aqueous solution was added. The mixture was vortexed and sonicated until mixed evenly, to give the administration test solutions with concentrations of […], respectively, which were ready for use.
(§5) Animal testing period: 7 days (excluding adaptive feeding), hereinafter referred to as: D1-D7.
1. The first group was a solvent control group: N=7, all mice were males (the same below); • a) 0.5% solution of sodium carboxymethyl cellulose was gavagely administered from D1 to D6 (twice a day for each animal, with an interval of 8 hours between the morning and the afternoon). • b) Physiological saline was intraperitoneally injected in one-time on D4. • c) On D7, blood was collected from the orbit for euthanasia (300 ul of serum was extracted), the left kidney was fixed in formaldehyde, and the right kidney was preserved in liquid nitrogen (WB study may be carried out).
1) The concentrations of urea nitrogen and creatinine in peripheral blood serum were tested.
(§6) The body weight of the animals when being grouped for administration in each group was recorded. The body weight and the kidney weight at the end of the assay were also recorded, and the kidney coefficient was calculated. The creatinine and urea nitrogen values in the blood samples sent for testing were recorded. The kidneys were stained with HE and PAS, and the slides were scanned. A report was issued after the pathological analysis.
The assay data were calculated and processed statistically using Microsoft Office Excel 2007 software. Unless otherwise specified, the data were expressed as mean±standard error (Mean±SE), and t-test was used for comparison between two groups.

[2] = system: cisplatin-induced acute kidney damage in mice; experiment: Example 11: renal pathology (HE, PAS) and pathological scoring; type: in vivo, C57BL/6J mice; settings: bid, listed as R01
Description: as §1, §2, §3, §4, §5
1. […]
as §6, with “The kidneys were stained with HE and PAS, and the slides were scanned. A report was issued after the pathological analysis.” left out

## COC1=C(OC)C(=O)C(CCCCCCCCCCOC(=O)Cc2c(C)n(C(=O)c3ccc(Cl)cc3)c3ccc(OC)cc23)=C(C)C1=O [compound of formula (I)]
NCI-H460 cells; 10 μM
  Q1 Gated % (dead cells): 1.72 ± 0.08%
  Q2 Gated % (late apoptotic cells): 3.23 ± 2.59%
  Q3 Gated % (early apoptotic cells): 1.55 ± 1.16%
  Q4 Gated % (normal cells): 93.5 ± 3.82%
  percentage of apoptosis (total apoptosis): 4.78 ± 3.75
NCI-H460 cells; 30 μM
  Q1 Gated % (dead cells): 1.75 ± 0.45%
  Q2 Gated % (late apoptotic cells): 4.79 ± 0.37%
  Q3 Gated % (early apoptotic cells): 5.01 ± 1.70%
  Q4 Gated % (normal cells): 88.45 ± 2.47%
  percentage of apoptosis (total apoptosis): 9.8 ± 2.06
NCI-H460 cells; 90 μM
  Q1 Gated % (dead cells): 0.55 ± 0.04%
  Q2 Gated % (late apoptotic cells): 9.32 ± 0.35%
  Q3 Gated % (early apoptotic cells): 38.35 ± 2.33%
  Q4 Gated % (normal cells): 51.85 ± 2.05%
  percentage of apoptosis (total apoptosis): 47.67 ± 1.99
[1]; R01 high-dosage group (36 mg/kg bid) with cisplatin 10 mg/kg, P<0.05
  serum urea nitrogen value: significantly lower than that of the model group
[1]; R01 low-dosage group (6 mg/kg bid) with cisplatin 10 mg/kg
  serum urea nitrogen value vs model group: no significant difference
[1]; R01 medium-dosage group (18 mg/kg bid) with cisplatin 10 mg/kg
  serum urea nitrogen value vs model group: no significant difference
[1]; R01 6 mg/kg
  Urea nitrogen (Bun) level after the assay, x (mean): 16.1 mg/dL
[1]; R01 18 mg/kg
  Urea nitrogen (Bun) level after the assay, x (mean): 16.1 mg/dL
[1]; R01 36 mg/kg
  Urea nitrogen (Bun) level after the assay, x (mean): 13.7 mg/dL
[1]; R01 6 mg/kg, listed as R01, 6 mg/kg
  Urea nitrogen (Bun) level after the assay: 28.3 mg/dL and 29.25 mg/dL and 10.62 mg/dL and 11.72 mg/dL and 13.85 mg/dL and 4.91 mg/dL and 14.1 mg/dL
[1]; R01 18 mg/kg, listed as R01, 18 mg/kg
  Urea nitrogen (Bun) level after the assay: 13.41 mg/dL and 15.83 mg/dL and 19.59 mg/dL and 14.73 mg/dL and 10.38 mg/dL and 22 mg/dL and 16.55 mg/dL
[1]; R01 36 mg/kg, listed as R01, 36 mg/kg
  Urea nitrogen (Bun) level after the assay: 12.39 mg/dL and 12.73 mg/dL and 14.32 mg/dL and 14.34 mg/dL and 9.98 mg/dL and 14 mg/dL and 17.8 mg/dL
[2]; cisplatin 10 mg/kg + R01 6 mg
  pathological damage of kidneys: severe renal tubular damage, epithelial cell necrosis and slight protein casts and 2 animals suffered serious kidney damage, and the others were mildly damaged and significantly reduced
[2]; cisplatin 10 mg/kg + R01 36 mg
  pathological damage of kidneys: Only one mouse in this group showed slight pathological damage to the kidney; also recorded: basically complete kidney tissue morphology, slight damage
